Square brackets hold non-standard residues; d marks the D form. Ends that are not written are not given here. Sta = CC(C)C[C@H](N)[C@@H](O)CC(=O)O
How the values were obtained:
[1] = biological target: Caspase-3 enzyme (Homo sapiens, UniProt P42574); conditions: Example 10, peptide substrate with Caspase-3 at CRT; control without enzyme remains unchanged
Description: To a known amount of the peptide substrate represented by SEQ ID NO:8 in assay buffer is added a sample solution of Caspase-3 enzyme in one well of a 384-well plate. In another well, the peptide substrate is taken without enzyme. The plate is incubated at CRT and the sample and control wells measured for fluorescence intensity at various time periods. […] An assay of this type is represented in FIG. 3.

[2] = biological target: T1, β-secretase (Homo sapiens, UniProt P56817); experiment: QTL assay for inhibition of β-secretase activity by a known inhibitor; format: biochemical; conditions: for delta-over-control RFU: BSEC-1 substrate, 30 ng β-secretase, 15 minutes, Polymer A, without inhibitor 4468±85
Excerpt: In another embodiment, the QTL assay is capable of detecting the inhibition of β-secretase activity in unknown samples. Whereas, in the absence of any inhibitory substance in the reaction mixture, the enzyme would cleave a large portion of the reactive tether present, in the presence of an effective inhibitor, the enzyme loses most of its activity. The QTL assay provides evidence of partial or total inhibition of enzyme activity through a lowering or complete lack of “fluorescence recovery” in such samples.
The structure of the statine-derived peptide inhibitor of β-secretase is given below:
STA-200 is a well-known inhibitor of β-secretase activity. To 2.5 μL of an 800 nM solution of BSEC-1 in assay buffer was added 30 ng of β-secretase and the volume made up to a total of 10 μL with assay buffer. In another well, 2.5 μL of 800 nM BSEC-1 solution was incubated with a pre-mixed solution of 2.5 μL of STA-200 solution and 30 ng of β-secretase so that the final volume is again 10 μL. Two control reactions were also set up in separate wells where one had only peptide in assay buffer while the other had peptide and inhibitor incubating in assay buffer. All samples were incubated at CRT for 15 minutes followed by the addition to each of 19.2 μL of Polymer A suspension (1×10^7 microspheres) in polymer buffer. The mixtures were then probed for emission at 530 nm by exciting them at 440 nm and using 475 nm cut-off filter. The mixture of peptide and enzyme alone gave a delta-over-control RFU of 4468±85. In comparison, a mixture of peptide, enzyme and 60 nM STA-200 (600 fmol) gave a delta-over-control RFU of 2746±241 while a mixture containing 250 nM STA-200 (2.5 pmol) gave a corresponding value of only 865±178.

[3] = biological target: T1, β-secretase; experiment: QTL/QTP assay for β-secretase activity with quencher-tether-biotin peptide substrates; format: biochemical
Description: In a 384-well plate, […] of β-secretase peptide substrate solution of appropriate concentration was mixed with a given amount of β-secretase enzyme in a total volume of […] in assay buffer. In the same plate, a control experiment was also set up where the same amount of peptide was taken in assay buffer but no enzyme was added. The experiments were usually done in triplicate sets for both sample and control. After a given time period of incubation at CRT, the fluorescent polymer in polymer buffer was added to the sample and control wells. The well plate was shaken inside the plate reader and the fluorescence intensity of the samples was measured. The difference in relative fluorescence units between sample and control wells is a measure of enzyme activity.
In the above example, the polymer can include any of the following: • A. Biotin binding protein (BBP) functionalized polystyrene latex carboxylic acid microspheres that are coated with conjugated polymer 1; • B. Solution complex of BBP and biotinylated polymer 2; • C. Microspheres as in A that are doped with a small amount of Phycoerythrin or related fluorescent protein conjugated to biotin; • D. Solution Sensor as in B doped with a small amount of Phycoerythrin or related fluorescent protein conjugated to biotin; and • E. Covalent conjugate of Phycoetythrin or another fluorescent protein and BBP. […]
The assay performance was further improved when the polymer microsphere sample A was doped with a small amount of Biotin-R-Phycoerythrin (Biotin-R-PE) conjugate. In one experiment, BSEC-1, BSEC-3 (a,b) (same peptide substrate synthesized by different vendors) and BSEC-4 were all exposed to β-secretase enzyme under identical conditions to compare their efficiencies in the assay. Polymer sample C was prepared fresh just before the start of experiment by mixing together Polymer A and Biotin-R-PE in a ratio designed to provide 5×10^6 microspheres doped with 100 fmol of Biotin-R-PE per well in a volume of 10 μL.
To 5 μL of a 300 nM solution of each peptide substrate in assay buffer in separate wells was added 10 ng of β-secretase enzyme in 5 μL of assay buffer to start the reactions. Each reaction was performed in triplicate. Controls were performed for each peptide without enzyme in quadruplicate. The samples were incubated at CRT for 60 minutes. At the end of the incubation period, the Biotin-R-PE doped polymer C was added to each well. The plate was shaken in the plate reader for 60 seconds, then probed for emission at 576 nm by exciting at 440 nm and using 475 nm cut-off filter. BSEC-1 gave RFU values of 6270±196 for control and 9645±152 for sample. BSEC-3a gave RFUs of 7656±20 for control and 15022±743 for sample while BSEC-3b gave RFUs of 6054±41 and 12265±913 for control and sample respectively. In comparison, BSEC-4 gave values of 9207±364 and 9732±319 for control and sample respectively.
The polymer solution sensor B was prepared by mixing together 56.5 nmol of Avidin (Biotin binding protein, BBP) and 848 nmol of biotinylated PPE polymer 2 in a total volume of 11.3 μL and incubating at CRT for 24 hours. The polymer and the BBP combine with each other through the biotin-avidin interaction to form stable entities. The solution sensor thus prepared was diluted appropriately with polymer buffer at the beginning of each experiment.
To 5 μL of a 400 nM solution of BSEC-1 in assay buffer in a 384 well plate was added 30 ng of β-secretase dissolved in 5 μL of assay buffer. The mixture was made in triplicate and incubated for 30 minutes at CRT. The control wells contained only peptide and no enzyme. After incubation, a 100-fold dilution of the above solution sensor was added at 20 μL to each well. The plate was shaken inside the microplate reader and the wells were probed by exciting the polymer at 440 nm and measuring emission intensity at 530 run. The control wells gave an average RFU value of 5400±200 and the sample wells containing enzyme gave RFU of 8350±200. […]

[4] = biological target: Streptavidin-B-Phycoerythrin conjugate (SAv-BPE) (Streptomyces avidinii, UniProt P22629); experiment: Superquenching of fluorescent conjugate by β-secretase peptide substrate (Stern-Volmer); conditions: 2.5 nM solution of the fluorescent conjugate SAv-BPE
Excerpt: In another embodiment of the invention, the fluorescent polymer is a biological ensemble comprising phycoerythrin or phycobilisome.

[5] = Example 3: 300 nM substrate, 10 ng β-secretase, 60 minutes at CRT, Biotin-R-PE doped polymer C, ex 440 nm/em 576 nm
[6] = Example 3: 300 nM substrate, no enzyme, 60 minutes at CRT, Biotin-R-PE doped polymer C, ex 440 nm/em 576 nm
[7] = Example 7: 300 nM substrate, 20 ng β-secretase, 30 minutes, SAv-BPE (Polymer E), ex 490 nm/em 576 nm
[8] = Example 7: 300 nM substrate, no enzyme, 30 minutes, SAv-BPE (Polymer E), ex 490 nm/em 576 nm

T1 sequence (P56817 46-501): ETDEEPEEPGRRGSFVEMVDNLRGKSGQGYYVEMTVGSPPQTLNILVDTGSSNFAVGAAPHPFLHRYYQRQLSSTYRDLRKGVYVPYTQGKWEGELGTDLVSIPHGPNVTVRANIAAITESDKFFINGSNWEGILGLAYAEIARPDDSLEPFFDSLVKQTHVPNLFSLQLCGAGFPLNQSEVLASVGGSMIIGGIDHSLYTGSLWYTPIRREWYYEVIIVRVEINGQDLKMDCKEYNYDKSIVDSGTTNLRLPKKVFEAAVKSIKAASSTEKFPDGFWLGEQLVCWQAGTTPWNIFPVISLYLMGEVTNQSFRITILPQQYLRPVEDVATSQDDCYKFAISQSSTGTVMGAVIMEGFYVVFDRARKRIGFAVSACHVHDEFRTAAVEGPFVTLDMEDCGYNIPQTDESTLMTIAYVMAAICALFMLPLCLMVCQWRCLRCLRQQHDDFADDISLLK
Sequence of Caspase-3 enzyme (P42574 29-175 limits assumed, species assumed): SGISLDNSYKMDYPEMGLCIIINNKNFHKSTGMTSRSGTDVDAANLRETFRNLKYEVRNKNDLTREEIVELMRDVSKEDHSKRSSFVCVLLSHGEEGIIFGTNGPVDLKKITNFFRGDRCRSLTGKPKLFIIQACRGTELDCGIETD
Sequence of Caspase-3 enzyme (P42574 176-277 limits assumed, species assumed): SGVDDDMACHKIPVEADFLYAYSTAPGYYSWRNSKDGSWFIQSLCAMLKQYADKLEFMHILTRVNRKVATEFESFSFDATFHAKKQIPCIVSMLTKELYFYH
Sequence of Streptavidin-B-Phycoerythrin conjugate (SAv-BPE) (P22629 25-183): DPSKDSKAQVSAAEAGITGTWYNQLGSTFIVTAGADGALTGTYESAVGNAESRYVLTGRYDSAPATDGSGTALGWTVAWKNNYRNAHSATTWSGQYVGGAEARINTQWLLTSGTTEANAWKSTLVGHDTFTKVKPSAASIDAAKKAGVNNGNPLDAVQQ
Sequence of Streptavidin-B-Phycoerythrin conjugate (SAv-BPE) (P11392 whole entry partner): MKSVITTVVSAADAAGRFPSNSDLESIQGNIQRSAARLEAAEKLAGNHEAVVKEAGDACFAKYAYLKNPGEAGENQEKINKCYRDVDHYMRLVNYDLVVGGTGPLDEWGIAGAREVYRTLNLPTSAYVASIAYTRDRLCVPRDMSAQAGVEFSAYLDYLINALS
Sequence of Streptavidin-B-Phycoerythrin conjugate (SAv-BPE) (P11393 whole entry partner): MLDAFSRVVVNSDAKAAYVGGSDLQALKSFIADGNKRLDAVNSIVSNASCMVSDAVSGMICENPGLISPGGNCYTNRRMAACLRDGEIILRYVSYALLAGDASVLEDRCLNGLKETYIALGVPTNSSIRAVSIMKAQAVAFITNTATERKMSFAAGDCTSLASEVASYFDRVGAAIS

Substance: D-E-V-D-Cyanine [SEQ ID NO:8]
- fluorescence intensity of sample with increasing time [1]: increase in fluorescence

Substance: KTEISEVN-(Sta)-VAEF-OH (KTEISEVN[Sta]VAEF-OH; N-terminus assumed; SMILES CC[C@H](C)[C@H](NC(=O)[C@H](CCC(=O)O)NC(=O)[C@@H](NC(=O)[C@@H](N)CCCCN)[C@@H](C)O)C(=O)N[C@@H](CO)C(=O)N[C@@H](CCC(=O)O)C(=O)N[C@H](C(=O)N[C@@H](CC(N)=O)C(=O)N[C@@H](CC(C)C)[C@@H](O)CC(=O)N[C@H](C(=O)N[C@@H](C)C(=O)N[C@@H](CCC(=O)O)C(=O)N[C@@H](Cc1ccccc1)C(=O)O)C(C)C)C(C)C) [STA-200]
- delta-over-control RFU ([2]; 60 nM STA-200 (600 fmol)): 2746±241 RFU
- delta-over-control RFU ([2]; 250 nM STA-200 (2.5 pmol)): 865±178 RFU
- IC50 value ([2]; sample incubated for fifteen minutes): in the range of nanomolar concentrations

Substance: (AZO)-TKKISEVNLDAEFRK-(Nε-Biotin) [BSEC-4]
- RFU of sample [3, 5]: 9732±319 RFU
- RFU of control [3, 6]: 9207±364 RFU

Substance: (QSY-7)-TEEISEVNLDAEFK-(Nε-Biotin) [BSEC-1]
- Stem-Volmer quenching constant [4]: ~1e+08 M⁻¹
- relative fluorescence units (RFU) of sample ([3]; Example 1: 400 nM substrate, 20 ng β-secretase, 30 min at CRT, polymer A, ex 420 nm/em 530 nm): 9045±109 RFU
- relative fluorescence units (RFU) of control ([3]; Example 1: 400 nM substrate, no enzyme, 30 min at CRT, polymer A, ex 420 nm/em 530 nm): 5529±286 RFU
- RFU of sample [3, 5]: 9645±152 RFU
- RFU of control [3, 6]: 6270±196 RFU
- RFU of sample wells containing enzyme ([3]; Example 5: 400 nM substrate, 30 ng β-secretase, 30 minutes at CRT, solution sensor polymer B, ex 440 nm/em 530 nm): 8350±200 RFU
- average RFU of control wells ([3]; Example 5: 400 nM substrate, no enzyme, 30 minutes at CRT, solution sensor polymer B, ex 440 nm/em 530 nm): 5400±200 RFU
- average RFU of enzyme wells [3, 7]: 11828±556 RFU
- average RFU of control wells [3, 8]: 7671±286 RFU
- delta-over-control RFU, peptide and enzyme alone ([3]; Example 8: 2.5 μL of 800 nM substrate, 30 ng β-secretase, no inhibitor, 15 minutes at CRT, Polymer A, ex 440 nm/em 530 nm): 4468±85 RFU

Substance: (AZO)-TEEISEVNLDAEFK-(Nε-Biotin) [BSEC-3]
- RFU of sample ([3]; Example 2: 400 nM substrate, 60 ng β-secretase, ten minutes at CRT, polymer A, ex 440 nm/em 530 nm): 10996±424 RFU
- RFU of control ([3]; Example 2: 400 nM substrate, no enzyme, ten minutes at CRT, polymer A, ex 440 nm/em 530 nm): 8111±707 RFU
- RFU of sample ([3]; Example 3: 300 nM substrate, 10 ng β-secretase, 60 minutes at CRT, Biotin-R-PE doped polymer C, ex 440 nm/em 576 nm, listed as BSEC-3a): 15022±743 RFU
- RFU of sample ([3]; Example 3: 300 nM substrate, 10 ng β-secretase, 60 minutes at CRT, Biotin-R-PE doped polymer C, ex 440 nm/em 576 nm, listed as BSEC-3b): 12265±913 RFU
- RFU of control ([3]; Example 3: 300 nM substrate, no enzyme, 60 minutes at CRT, Biotin-R-PE doped polymer C, ex 440 nm/em 576 nm, listed as BSEC-3a): 7656±20 RFU
- RFU of control ([3]; Example 3: 300 nM substrate, no enzyme, 60 minutes at CRT, Biotin-R-PE doped polymer C, ex 440 nm/em 576 nm, listed as BSEC-3b): 6054±41 RFU
- average RFU of sample wells ([3]; Example 6: 300 nM substrate, 30 ng β-secretase, 30 minutes at CRT, doped solution sensor D, ex 440 nm/em 576 nm): 14500±200 RFU
- average RFU of control wells ([3]; Example 6: 300 nM substrate, no enzyme, 30 minutes at CRT, doped solution sensor D, ex 440 nm/em 576 nm): 5200±100 RFU
- average RFU of enzyme wells [3, 7]: 18032±228 RFU
- average RFU of control wells [3, 8]: 11639±335 RFU

Reference: US20050014160A1, “Assays for protease enzyme activity” (priority 2003, published 2005)
